Assay results published in PubChem BioAssay AID1918957 (Molecular Pharmacology Branch, DTP, NCI, 2023).

Test system: NCI-H1876 complex spheroid viability
Test: Anticancer human tumor NCI-H1876 cell line growth inhibition [LSD1];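 note: spheroids exposed to compounds for one week before readout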;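 for viability, T/C: 100% = DMSO vehicle-treated spheroids so lower means fewer viable cells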
Conditions: for IC50: curve of first compound; for viability, T/C: stronger effect = lower value; active = viability on the fitted dose curve at most 10% of control; inactive = the rest
Procedure, shortened: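 Drug combinations with the LSD1 inhibitor iadademstat tested on tumor cells co-cultured as spheroids with endothelial cells and mesenchymal stem cells. Concentrations descended in half-log increments from clinical Cmax or 10 microM.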

O=C(c1cc(Cc2n[nH]c(=O)c3ccccc23)ccc1F)N1CCN(C(=O)C2CC2)CC1 + NC1CCC(NC2CC2c2ccccc2)CC1
5.37 µM: IC50 (second compound 3.16 µM)
5.05 µM: IC50 (second compound 10 µM)
6.13 µM: IC50 (second compound 1 µM)
inactive: viability, T/C (second compound 0.1 µM, first compound 0.0316 µM) 90.7% | viability, T/C (second compound 0.1 µM, first compound 0.1 µM) 99.4% | viability, T/C (second compound 0.1 µM, first compound 0.316 µM) 89.4% | viability, T/C (second compound 0.1 µM, first compound 1 µM) 94.8% | viability, T/C (second compound 0.1 µM, first compound 3.16 µM) 76.2% | viability, T/C (second compound 0.1 µM, first compound 10 µM) 35.4% | viability, T/C (second compound 0.316 µM, first compound 0.0316 µM) 99.2% | viability, T/C (second compound 0.316 µM, first compound 0.1 µM) 93% | viability, T/C (second compound 0.316 µM, first compound 0.316 µM) 89.4% | viability, T/C (second compound 0.316 µM, first compound 1 µM) 87.2% | viability, T/C (second compound 0.316 µM, first compound 3.16 µM) 69.5% | viability, T/C (second compound 0.316 µM, first compound 10 µM) 35.5% | viability, T/C (second compound 1 µM, first compound 0.0316 µM) 90.2% | viability, T/C (second compound 1 µM, first compound 0.1 µM) 93% | viability, T/C (second compound 1 µM, first compound 0.316 µM) 91.5% | viability, T/C (second compound 1 µM, first compound 1 µM) 79.7% | viability, T/C (second compound 1 µM, first compound 3.16 µM) 70.5% | viability, T/C (second compound 1 µM, first compound 10 µM) 35.8% | viability, T/C (second compound 3.16 µM, first compound 0.0316 µM) 90.7% | viability, T/C (second compound 3.16 µM, first compound 0.1 µM) 95.4% | viability, T/C (second compound 3.16 µM, first compound 0.316 µM) 86.7% | viability, T/C (second compound 3.16 µM, first compound 1 µM) 86.7% | viability, T/C (second compound 3.16 µM, first compound 3.16 µM) 64.5% | viability, T/C (second compound 3.16 µM, first compound 10 µM) 32.7% | viability, T/C (second compound 10 µM, first compound 0.0316 µM) 95.7% | viability, T/C (second compound 10 µM, first compound 0.1 µM) 90.6% | viability, T/C (second compound 10 µM, first compound 0.316 µM) 85.9% | viability, T/C (second compound 10 µM, first compound 1 µM) 79.8% | viability, T/C (second compound 10 µM, first compound 3.16 µM) 64.6% | viability, T/C (second compound 10 µM, first compound 10 µM) 29.9%
6.62 µM: IC50 (second compound 0.1 µM)
6.16 µM: IC50 (second compound 0.316 µM)
